Experimental data: US20070196361A1, “Long term administration of pharmacologically active agents” (priority 1999, published 2007)

Assays:
[1] = system: cancers responsive to paclitaxel; assay: Long term administration of paclitaxel at sub-therapeutic dose levels in cancer treatment; assay type: in vivo
Excerpt: In rapidly dividing cells as in a tumor, different cells are in different phases of the cell cycle at any given time.
The entire dose is usually given on the first day of the 3 week cycle.

[2] = system: tumor cell lines; conditions: cited from earlier work

In the case of CC(=O)O[C@H]1C(=O)[C@@]2(C)[C@H]([C@H](OC(=O)c3ccccc3)[C@]3(O)C[C@H](OC(=O)[C@H](O)[C@@H](NC(=O)c4ccccc4)c4ccccc4)C(C)=C1C3(C)C)[C@]1(OC(C)=O)CO[C@@H]1C[C@@H]2O [paclitaxel], the “benefit in the treatment of cancers responsive to paclitaxel” value ([1]; continuous administration over 3 weeks, total cumulative dose e.g. 50-150 mg/m^2) is given as “significant benefit is obtained”, the “benefit in the treatment of cancers responsive to paclitaxel” value ([1]; plasma levels maintained at 0.01-0.05 μg/ml over a week or longer) is given as “significant benefit is obtained” and the “concentration at which paclitaxel is active on tumor cell lines” value ([2]; in vitro, tumor cell lines) is given as ~0.5 µg/mL. The “levels high enough to be cytotoxic to the tumor cells” value ([2]; tumor cells of the cancer being treated) was 500 to 1000 ng/mL.
